Six compounds from ChEMBL document CHEMBL1159189, “Pyrazolo[3,4-d]pyrimidines; adenosine receptor selectivity” (Bioorg Med Chem Lett, 1995) can be followed below.

One may read the IC50 as the point on the concentration scale where inhibition reaches its midpoint. Read a high IC50 as weaker potency. In general, Ki refers to the dissociation constant of the complex between target and ligand, obtained from inhibition or displacement. The low end stands for higher affinity, the high end for lower affinity.

The target in test [1] is T1, Adenosine receptor A2a (Rattus norvegicus, UniProt P30543). Description: Inhibitory activity against Adenosine A2a receptor binding site.
The target in test [2] is T1, Adenosine receptor A2a. Description: Binding affinity towards Adenosine A2a receptor by inhibition of [3H]CGS-21680 binding to rat brain striatum membranes. The format is cell membranes, Membrane.
Another test concerns the target T2, Adenosine receptor A1 (Rattus norvegicus, UniProt P25099).
T2 sequence (P25099 whole entry): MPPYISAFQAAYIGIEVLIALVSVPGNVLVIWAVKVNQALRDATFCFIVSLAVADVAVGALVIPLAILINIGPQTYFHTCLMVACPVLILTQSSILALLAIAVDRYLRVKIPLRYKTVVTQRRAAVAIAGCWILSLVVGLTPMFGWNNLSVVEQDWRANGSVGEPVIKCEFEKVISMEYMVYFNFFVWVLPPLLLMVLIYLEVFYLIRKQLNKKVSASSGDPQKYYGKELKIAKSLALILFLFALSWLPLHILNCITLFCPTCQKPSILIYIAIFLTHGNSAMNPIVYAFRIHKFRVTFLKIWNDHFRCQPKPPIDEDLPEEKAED
Description: Binding affinity for Adenosine A1 receptor by inhibition of [3H]PIA binding to whole rat brain membranes. The test is classed as cell membranes, Membrane.

Test [3] has as its target Adenosine receptors; A1 & A2a (Rattus norvegicus) (UniProt P25099+P30543). Put plainly: Ratio of binding affinities for adenosine receptor A2a and adenosine receptor A1. The format is protein assay.

Sequence of Adenosine receptors; A1 & A2a (Rattus norvegicus) (P30543 whole entry, looked up, one chain of several): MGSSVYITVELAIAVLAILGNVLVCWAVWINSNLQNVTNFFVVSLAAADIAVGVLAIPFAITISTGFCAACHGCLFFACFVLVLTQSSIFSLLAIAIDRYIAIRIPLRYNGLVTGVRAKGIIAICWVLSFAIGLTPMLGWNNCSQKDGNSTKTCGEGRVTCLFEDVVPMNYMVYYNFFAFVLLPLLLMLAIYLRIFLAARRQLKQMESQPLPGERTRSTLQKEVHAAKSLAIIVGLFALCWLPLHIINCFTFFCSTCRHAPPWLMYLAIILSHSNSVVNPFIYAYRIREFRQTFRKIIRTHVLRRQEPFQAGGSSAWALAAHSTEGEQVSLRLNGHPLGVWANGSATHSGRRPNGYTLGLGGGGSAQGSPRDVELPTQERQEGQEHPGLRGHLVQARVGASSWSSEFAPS
T1 sequence (P30543 whole entry): as the sequence (P30543 whole entry, looked up, one chain of several) above

With `CCCCn1c(=O)[nH]c2c(cnn2-c2cccc(Cl)c2)c1=N`, the IC50 at Adenosine receptor A2a [1] amounted to 19200 nM.

As for `CCNC(=O)CSc1nc(N)c2cnn(-c3ccccc3)c2n1`, the Ki worked out at 131 nM on Adenosine receptor A2a [2] and 12.1 nM on Adenosine receptor A1. Besides, the Ratio in test [3] is 10.8.

As for `NC(=O)CSc1nc(N)c2cnn(-c3ccccc3)c2n1`, the inhibition constant (Ki) stood at 44.9 nM at Adenosine receptor A2a [2] and 28.5 nM on Adenosine receptor A1. For the same compound, the Ratio in test [3] is 1.6.

Consider `CC(Sc1nc(SC(C)C(N)=O)c2cnn(-c3ccccc3)c2n1)C(N)=O` (stereo not given), for which the Ki on Adenosine receptor A2a [2] was 146 nM; on Adenosine receptor A1, 229 nM.

Take `CCNC(=O)CCSc1nc(N)c2cnn(-c3ccccc3)c2n1`: the figures for the Ki on Adenosine receptor A2a [2] and on Adenosine receptor A1 were 1280 nM and 551 nM, respectively. For the same compound, the Ratio in test [3] was determined as 2.3.

As to `NC(=O)CCSc1nc(N)c2cnn(-c3ccccc3)c2n1`, the inhibitory constant (Ki) at Adenosine receptor A2a [2] is 101 nM; at Adenosine receptor A1 it was 428 nM. In test [3], the Ratio was 0.24.
